How the values were obtained:
[1] = Particulate matter in water solutions of disodium clodronate and cholecalciferol with organic solvents; type: physicochemical; design: key: *: opalescent; **: turbid; ***: precipitate; conditions: disodium clodronate 100 mg/3ml, cholecalciferol 0.35mg/3ml
Method: (§1) In order to assess the degree of water solubilization of bisphosphonates and vitamin D by addition of variable amounts of benzyl alcohol and other water mixable organic solvents, 2 mother solutions at concentration of 100 mg disodium clodronate or 5 mg zoledronic acid in 2 ml water for injection, examples of respectively high and low dose bisphosphonates, were prepared and buffered with sodium bicarbonate to pH 6.5.
(§2) Two-ml samples of both solutions with the two bisphosphonates mentioned above were then diluted with water to approx. 3 ml (3 samples: more precisely 2997 µl, 2991µl, and 2970 µl), to 2.7 ml (1 sample) and to 2.4 ml (1 sample).A mother solution containing cholecalciferol in benzyl alcohol or other water mixable organic solvents in a ratio of 0.35 mg : 3.0 mg respectively (11.67% w/w) was also prepared and 2 series of 5 samples of 3.35 mg of it were taken and kept as such (1 sample) or diluted with 6.0 mg, 27.0 mg, 297.0 and 597.0 mg respectively of the same solvent (4 samples).The 5 cholecalciferol solution samples were then added, under slow stirring, to the 5 solution samples of each bisphosphonate in the order, so as to give mixtures with solvent concentration of 0.1, 0.3, 1.0, 10.0 and 20.0% (w/v), left to stand for 10 minutes and then examined according to the microscopic particle count test or visually (an instrumental particle counter was unnecessary).
Table Va: particulate matter in water solutions of disodium clodronate 100 mg/3ml and cholecalciferol 0.35mg / 3ml, containing different % concentrations (w/v) of organic solvents.

[2] = Particulate matter in water solutions of zoledronic acid and cholecalciferol with organic solvents; type: physicochemical; design: key: *: opalescent; **: turbid; ***: precipitate; conditions: zoledronic acid 5.0 mg/3ml, cholecalciferol 0.35 mg/3ml
Method: as §1, §2
Table Vb: particulate matter in water solutions of zoledronic acid 5.0 mg/3ml and cholecalciferol 0.35 mg / 3ml, containing different % concentrations (w/v) of organic solvents.

[3] = 10 % (w/v) solvent, count or visual symbol
[4] = 20 % (w/v) solvent, visual symbol
[5] = 10.0 % (w/v) solvent, count or visual symbol
[6] = 20.0 % (w/v) solvent, visual symbol

Which results are given for “Sorbitane monoleate [Sorbitane monoleate (SPAN® 80)]”?
Particulate matter ≥ 10µm per ml ([1]; 0.1 % (w/v) solvent): 83 per ml; Particulate matter ≥ 10µm per ml ([1]; 0.3 % (w/v) solvent): 74 per ml; Particulate matter ≥ 10µm per ml ([1]; 1.0 % (w/v) solvent): 56 per ml; Particulate matter ≥ 10µm per ml [1, 3]: **; Particulate matter ≥ 10µm per ml [1, 4]: ***

Which results are given for `OCc1ccccc1` [Benzyl alcohol]?
Particulate matter ≥ 10µm per ml ([1]; 0.1 % (w/v) solvent): 8 per ml; Particulate matter ≥ 10µm per ml ([1]; 0.3 % (w/v) solvent): 0 per ml; Particulate matter ≥ 10µm per ml ([1]; 1.0 % (w/v) solvent): 0 per ml; Particulate matter ≥ 10µm per ml [1, 3]: 0 per ml; Particulate matter ≥ 10µm per ml [1, 4]: *; Particulate matter ≥ 10µm per ml ([2]; 0.1 % (w/v) solvent): 10 per ml; Particulate matter ≥ 10µm per ml ([2]; 0.3 % (w/v) solvent): 0 per ml; Particulate matter ≥ 10µm per ml ([2]; 1.0 % (w/v) solvent): 0 per ml; Particulate matter ≥ 10µm per ml [2, 5]: 0 per ml; Particulate matter ≥ 10µm per ml [2, 6]: *

For `CCO` [Ethanol], which “Particulate matter ≥ 10µm per ml” value ([1]; 0.1 % (w/v) solvent) is on record?
Its value is 75 per ml.

What about the “Particulate matter ≥ 10µm per ml” value ([1]; 0.3 % (w/v) solvent) of the same compound?
The value was 23 per ml.

And the “Particulate matter ≥ 10µm per ml” value ([1]; 1.0 % (w/v) solvent)?
The value was 48 per ml.

And the “Particulate matter ≥ 10µm per ml” value [1, 3]?
The value was “**”.

And the “Particulate matter ≥ 10µm per ml” value [1, 4]?
The value was “***”.

And the “Particulate matter ≥ 10µm per ml” value ([2]; 0.1 % (w/v) solvent)?
The value was 68 per ml.

What about the “Particulate matter ≥ 10µm per ml” value ([2]; 0.3 % (w/v) solvent) of the same compound?
The value was 22 per ml.

What about the “Particulate matter ≥ 10µm per ml” value ([2]; 1.0 % (w/v) solvent) of the same compound?
The value was 16 per ml.

And the “Particulate matter ≥ 10µm per ml” value [2, 5]?
Its value is “*”.

What about the “Particulate matter ≥ 10µm per ml” value [2, 6] of the same compound?
The value was “**”.

Reference: patent EP2668952A2, “Aqueous formulations of bisphosphonates, vitamin D and benzyl alcohol suitable for subcutaneous or intramuscular use” (Romano, Paolo, priority 2012, dated 2013)
